Measurements: patent publication US10221392B2, “Generation of pancreatic endoderm from pluripotent stem cells using small molecules” (Novo Nordisk A/S, priority 2012, dated 2019)

Columns and labels:
Assay type in all cases: cell-based, human
[1] = system: NKX6.1/PDX1 double positive cells; assay: NKX6.1/PDX1 library screen, early phase (compounds on top of bFGF based PE media, first seven days); settings: concentration at which the fraction of NKX6.1/PDX1 double positive cells was enhanced more than 200% compared the PE media
Procedure: Human embryonic stem (hES) cells line SA121 and human induced pluripotent stem cells (hiPSC) chIPS4 (Cellectis) were grown in DEF-CS culture media (Cellectis) in T75 culture flasks.
After 24 hours the cells were washed with RPMI1640 and treated with 100 ng/ml Activin A (Peprotech #120-14E) in RPMI1640. […] Cells were maintained at 37° C. and 5% CO2 in a humidified incubator during the differentiation.
The DE cells were seeded at 200 000/cm^2 in 96 well optical plates (BD Bioscience), and PE differentiation using screening compounds was initiated the following day.
Cells were washed three times with PBS. […] Cells were washed five times and left in 200 μL PBS for imaging.
(§1) Imaging was performed using the InCell Analyzer 2000 (GE Healthcare). 4 fields per well with 10× objective were captured. The total cell number based in the DAPI counterstaining and the number of NKX6.1/PDX1 double positive cells was determined using InCell Developer Toolbox 1.8 (GE Healthcare). The fraction of NKX6.1/PDX1 double positive cells was normalized to the benchmark on each plate and the % effect was calculated. Values above 200% effect were categorized as hits.
The compounds within the bioactive library were tested at 1 uM and 0.1 uM. Compounds from the other libraries were tested at 10 uM and 1 uM. In a second candidate based screening approach, small molecules that target the main signalling pathways involved in pancreas development were included.
The library PE screening approach was divided into an early and a late phase (FIG. 1).
In the early phase, compounds were tested on top of the PE media for the first seven days of PE differentiation, and then the differentiation was continued for additional six days using PE media without compounds.
The screen was divided into an early and a late phase (FIG. 1). In the early phase, compounds were tested on top of the PE media for the first seven days of PE differentiation, and then continued for additional six days using PE media without compounds. In the late phase, DE cells were differentiated in the PE media for the first seven days. In the following six days compounds were tested on top of the PE media. Twelve positive control wells (PE media) and 12 negative control wells (PE media without bFGF) were included in each 96 well plate. Media change was performed daily.

[2] = system: NKX6.1/PDX1 double positive cells; assay: Candidate based PE screen 2 (after 4 days hit compound of screen 1, compounds in basal medium for last 10 days); settings: cells first exposed to hit compound from screen 1 for 4 days, compounds added for last 10 days; FIG. 5
Procedure: Pluripotent stem (PS) cells were differentiated into definitive endoderm according to DE protocol (See general methods) and seeded in 96 well plates for screening. The pancreatic endoderm screen was divided into two parts. In screen 1, compounds were added to a basal medium (RPMI1640+0.1% PEST+12% KOSR) the first eight days of PE differentiation. […] In screen 2, cells were first differentiated for 4 days with the hit compounds from screen 1, then screening compounds were added the last 10 days to basal medium.
Imaging was performed using the InCell Analyzer 2000 (GE Healthcare). […] The total cell number based in the DAPI counterstaining and the number of NKX6.1/PDX1 double positive cells was determined using InCell Developer Toolbox 1.8 (GE Healthcare). The fraction of NKX6.1/PDX1 double positive cells was normalized to the benchmark on each plate and the % effect was calculated. […]

[3] = system: NKX6.1/PDX1 double positive cells; assay: Candidate based PE screen 1 (compounds in basal medium without bFGF, first eight days); settings: compared to benchmark protocol (Ameri et al, 2010); hiPSC and hESC; FIG. 5
Procedure: Pluripotent stem (PS) cells were differentiated into definitive endoderm according to DE protocol (See general methods) and seeded in 96 well plates for screening. The pancreatic endoderm screen was divided into two parts. In screen 1, compounds were added to a basal medium (RPMI1640+0.1% PEST+12% KOSR) the first eight days of PE differentiation. Compounds were tested in 4 different time windows having 2 day increments and then cells were left to continue differentiation for another six days in the bFGF based published protocol (Ameri et al., 2010). In screen 2, cells were first differentiated for 4 days with the hit compounds from screen 1, then screening compounds were added the last 10 days to basal medium.
Human embryonic stem (hES) cells line SA121 and human induced pluripotent stem cells (hiPSC) chIPS4 (Cellectis) were grown in DEF-CS culture media (Cellectis) in T75 culture flasks. […]
as §1, with “4 fields per well with 10× objective were captured.” left out, “Values above 200% effect were categorized as hits.” left out

Row | SMILES | hit concentration (Concentration) [1] [µM] | also measured
1 | O=c1cc(-c2cccc3c2Sc2ccccc2S3)oc(N2CCOCC2)c1 [ATM Kinase Inhibitor] | 10 | 
2 | NC(=O)c1ccc2[nH]c(-c3ccc(Oc4ccc(Cl)cc4)cc3)nc2c1 [Chk2 Inhibitor II] | 10 | 
3 | CC1=C2C[C@H]3[C@@H](CC=C4C[C@@H](O)CC[C@@]43C)[C@@H]2CC[C@]12O[C@@H]1C[C@H](C)CN[C@H]1[C@H]2C [Cyclopamine] |  | hit identification, candidate screen 2 [2]: hit compounds
4 | Cc1ccc2nc(NC(=O)CSc3nc4c(c(=O)n3-c3ccccc3)SCC4)sc2c1 [IWP2] |  | hit identification, candidate screen 2 [2]: hit compounds
5 | c1ccc2c(-c3cnn4cc(-c5ccc(N6CCNCC6)cc5)cnc34)ccnc2c1 [LDN-193189] |  | hit identification and most effective time window, candidate screen 1 [3]: most effective when added for the first 4 days followed by 4 days basal medium
6 | Fc1ccc(-c2nc3n(c2-c2ccncc2)CCS3)cc1 [SKF-86002] | 10 | 
7 | COc1ccc(-c2cnc3c(-c4ccsc4)cnn3c2)cc1 [VEGF Receptor 2 Kinase Inhibitor IV] | 10 | 
